Test results published in PMC8505367 (Clinical Pharmacokinetics, 2021).

Key:
plasma protein = settings: cited from earlier work
[1] = assay type: in vivo, human; settings: subjects with T2D, N = 55, oral, recommended dosing conditions; geometric mean of typical PK parameter values for each subject
[2] = assay type: in vivo, human; settings: oral, post-dose fasting time 120 min, model-derived
[3] = reducing gastric pH with omeprazole; cited from earlier work

ka (absorption rate) [1]: 2.09 h⁻¹
Bioavailability, plateau with longer post-dose fasting time [2]: around 1.4%
Compound: CC[C@H](C)[C@H](NC(=O)[C@H](Cc1ccccc1)NC(=O)[C@H](CCC(=O)O)NC(=O)[C@H](CCCCNC(=O)COCCOCCNC(=O)COCCOCCNC(=O)CC[C@H](NC(=O)CCCCCCCCCCCCCCCCC(=O)O)C(=O)O)NC(=O)[C@H](C)NC(=O)[C@H](C)NC(=O)[C@H](CCC(N)=O)NC(=O)CNC(=O)[C@H](CCC(=O)O)NC(=O)[C@H](CC(C)C)NC(=O)[C@H](Cc1ccc(O)cc1)NC(=O)[C@H](CO)NC(=O)[C@H](CO)NC(=O)[C@@H](NC(=O)[C@H](CC(=O)O)NC(=O)[C@H](CO)NC(=O)[C@@H](NC(=O)[C@H](Cc1ccccc1)NC(=O)[C@@H](NC(=O)CNC(=O)[C@H](CCC(=O)O)NC(=O)C(C)(C)NC(=O)[C@@H](N)Cc1cnc[nH]1)[C@@H](C)O)[C@@H](C)O)C(C)C)C(=O)N[C@@H](C)C(=O)N[C@@H](Cc1c[nH]c2ccccc12)C(=O)N[C@@H](CC(C)C)C(=O)N[C@H](C(=O)N[C@@H](CCCNC(=N)N)C(=O)NCC(=O)N[C@@H](CCCNC(=N)N)C(=O)NCC(=O)O)C(C)C [semaglutide]
Plasma protein binding (plasma protein): > 99%
Change in semaglutide exposure [3]: small but not clinically relevant increase
